Structures are written as SMILES.

Common to all, as to type: biochemical
Experiment [1] has as its target PDE 1 (Ca-calmodulin dependent PDE). Description: Phosphodiesterase inhibiting effect, PDE 1 separated from dog heart. Particulars: isozyme from the heart of a dog; [3H]-cAMP or [3H]-cGMP substrate; read-out: PDE inhibiting activity : IC50(nM) PDE1. The method, then: (§1) Cyclic nucleotide phosphodiesterases from human platelets and from the heart and kidney of a dog were eluted by the concentration gradient method with 70 to 1000 mM of sodium acetate on DEAE-cellulose column chromatography (Whatman Co. Ltd., DE-52, φ 3.2 x 13 cm) according to the method of Thompson and others (Thompson W. J., et al., Advances in Cyclic Nucleotide Research: 10, 69-92, 1979), and separated into isozymes. PDE 5 (cGMP specific PDE), PDE 3 (cGMP inhibited PDE) and PDE 2 (cGMP stimulated PDE) were separated from the platelets, PDE 1 (Ca-calmodulin dependent PDE) and PDE 4 (cAMP specific PDE) were separated from the heart and the kidney respectively. The method of Thompson, et al was partially modified to measure phosphodiesterase activities: […] of [3H]-cAMP or [3H]-cGMP was decomposed with phosphodiesterase. The produced 5'-AMP or 5'-GMP was decomposed to adenosine or guanosine with a snake venom (Sigma V7000). The reaction solution was added to anion exchange resin (Bio-Rad Co. Ltd., AG1-X8). Non-adsorbed adenosine or guanosine was counted by a liquid scintillation counter. […]

The target of experiment [2] is PDE 4 (cAMP specific PDE). Description: Phosphodiesterase inhibiting effect, PDE 4 separated from dog kidney. Particulars: isozyme from the kidney of a dog; [3H]-cAMP or [3H]-cGMP substrate; read-out: PDE inhibiting activity : IC50(nM) PDE4. The method, then: as §1
Experiment [3] concerns the target T1, PDE 5 (cGMP specific PDE) (Homo sapiens, UniProt O76074).
T1 construct: from tissue; host or cells: human platelets, DEAE-cellulose fraction
Description: Phosphodiesterase inhibiting effect, PDE 5 separated from human platelets. As to conditions: isozyme from human platelets; [3H]-cAMP or [3H]-cGMP substrate; read-out: PDE inhibiting activity : IC50(nM) PDE5. The method, then: as §1

Experiment [4] deals with T2, PDE 3 (cGMP inhibited PDE) (Homo sapiens, UniProt Q14432).
T2 construct: from tissue; host or cells: human platelets, DEAE-cellulose fraction
Particulars: isozyme from human platelets; [3H]-cAMP or [3H]-cGMP substrate; read-out: PDE inhibiting activity : IC50(nM) PDE3. An excerpt:
PDE 5 (cGMP specific PDE), PDE 3 (cGMP inhibited PDE) and PDE 2 (cGMP stimulated PDE) were separated from the platelets, PDE 1 (Ca-calmodulin dependent PDE) and PDE 4 (cAMP specific PDE) were separated from the heart and the kidney respectively. The method of Thompson, et al was partially modified to measure phosphodiesterase activities: […] of [3H]-cAMP or [3H]-cGMP was decomposed with phosphodiesterase. The produced 5'-AMP or 5'-GMP was decomposed to adenosine or guanosine with a snake venom (Sigma V7000). The reaction solution was added to anion exchange resin (Bio-Rad Co. Ltd., AG1-X8). Non-adsorbed adenosine or guanosine was counted by a liquid scintillation counter.

T2 sequence (Q14432 whole entry): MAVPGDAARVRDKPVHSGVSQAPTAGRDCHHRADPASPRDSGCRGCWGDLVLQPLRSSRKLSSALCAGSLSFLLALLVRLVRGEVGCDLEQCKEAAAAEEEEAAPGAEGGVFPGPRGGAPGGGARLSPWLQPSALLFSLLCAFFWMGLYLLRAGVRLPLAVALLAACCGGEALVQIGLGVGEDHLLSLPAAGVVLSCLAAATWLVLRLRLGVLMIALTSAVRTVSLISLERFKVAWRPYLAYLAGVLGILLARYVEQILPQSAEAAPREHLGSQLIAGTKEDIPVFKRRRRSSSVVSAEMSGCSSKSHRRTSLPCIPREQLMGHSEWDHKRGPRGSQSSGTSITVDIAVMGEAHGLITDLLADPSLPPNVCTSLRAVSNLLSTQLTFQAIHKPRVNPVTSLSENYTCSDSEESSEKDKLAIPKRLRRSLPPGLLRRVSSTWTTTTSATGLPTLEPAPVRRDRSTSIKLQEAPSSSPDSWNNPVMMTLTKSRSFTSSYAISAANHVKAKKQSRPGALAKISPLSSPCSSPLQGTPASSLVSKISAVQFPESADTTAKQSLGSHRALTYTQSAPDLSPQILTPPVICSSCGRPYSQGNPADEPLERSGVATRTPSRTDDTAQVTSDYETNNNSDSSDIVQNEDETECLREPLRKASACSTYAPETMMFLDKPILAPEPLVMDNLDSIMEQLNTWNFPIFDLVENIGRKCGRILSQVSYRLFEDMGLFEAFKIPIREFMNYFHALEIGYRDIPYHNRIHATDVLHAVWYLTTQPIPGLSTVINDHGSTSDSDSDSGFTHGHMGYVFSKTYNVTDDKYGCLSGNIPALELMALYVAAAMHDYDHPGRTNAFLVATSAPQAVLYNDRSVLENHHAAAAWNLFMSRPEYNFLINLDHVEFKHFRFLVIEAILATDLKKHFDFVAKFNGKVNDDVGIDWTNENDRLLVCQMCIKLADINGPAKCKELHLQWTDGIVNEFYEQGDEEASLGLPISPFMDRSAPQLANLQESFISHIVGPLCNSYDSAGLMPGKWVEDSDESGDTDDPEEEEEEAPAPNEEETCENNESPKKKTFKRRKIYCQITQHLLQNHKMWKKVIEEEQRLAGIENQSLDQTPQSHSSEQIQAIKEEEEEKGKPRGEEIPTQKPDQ

What is called IC50 is the point on the concentration scale where inhibition reaches its midpoint. Take `COc1ccc(CNc2nc(-c3cccnc3)nc3sc(C(=O)O)c(C)c23)cc1Cl` [Compound 1]: the IC50 turned out to be 7100 nM in experiment [1], 1200 nM in experiment [2] and 3 nM in experiment [3].

Consider `COc1ccc(CNc2nc(-c3cccnc3)nc3sc(C(N)=O)c(C)c23)cc1Cl` [Compound 3], for which the IC50 in experiment [3] amounted to 2.3 nM.

Consider `COc1ccc(CNc2nc(-c3cccnc3)nc3sc(C#N)c(C)c23)cc1Cl` [Compound 4], for which, in experiment [3], the IC50 is 4.5 nM.

For the compound `COc1ccc(CNc2nc(-c3cccnc3)nc3sc(C(=O)N(C)C)c(C)c23)cc1Cl` [Compound 5], the IC50 in experiment [1] was more than 10000 nM; in experiment [2] it was 1400 nM; in experiment [3], 3.7 nM.

Regarding `COc1ccc(CNc2nc(-c3cccnc3)nc3sc(C(=O)Nc4ccccc4)c(C)c23)cc1Cl` [Compound 6], the results for the IC50 in experiment [1] and in experiment [3] were more than 10000 nM and 1.5 nM, respectively.

On to `COc1ccc(CNc2nc(-c3cccnc3)nc3sc(C(=O)N4CCOCC4)c(C)c23)cc1Cl` [Compound 7], for which the IC50 in experiment [1] is more than 10000 nM; in experiment [2], 1700 nM; in experiment [3] it was 3.5 nM.

As for `COc1ccc(CNc2nc(-c3cccnc3)nc3sc(C(=O)N4CCN(C=O)CC4)c(C)c23)cc1Cl` [Compound 9], the IC50 in experiment [3] was 6.1 nM.

Regarding `COc1ccc(CNc2nc(-c3cccnc3)nc3sc(-c4ccncc4)c(C)c23)cc1Cl` [Compound 10], the IC50 was more than 10000 nM in experiment [1] and 3.3 nM in experiment [3].

Consider `COc1ccc(CNc2nc(-c3cccnc3)nc3sc(C(=O)Nc4nccs4)c(C)c23)cc1Cl` [Compound 13], for which the IC50 in experiment [3] came out at 0.32 nM.

As for `COc1ccc(CNc2nc(-c3cccnc3)nc3sc(C(=O)Nc4cccnc4)c(C)c23)cc1Cl` [Compound 14], the half-inhibitory concentration (IC50) in experiment [3] came to 2.1 nM.

As for `COc1ccc(CNc2nc(-c3cccnc3)nc3sc(C(=O)NCCO)c(C)c23)cc1Cl` [Compound 17], the IC50 in experiment [3] was found to be 2.8 nM.

`COc1ccc(CNc2nc(-c3cccnc3)nc3sc(C(=O)NCCO[N+](=O)[O-])c(C)c23)cc1Cl` [Compound 18]: the IC50 in experiment [3] was found to be 2.8 nM.

On to `COc1ccc(CNc2nc(-c3ccncc3)nc3sc(C(=O)O)c(C)c23)cc1Cl` [Compound 19], for which the IC50 was more than 10000 nM in experiment [1], 4400 nM in experiment [2] and 0.74 nM in experiment [3].

Take `CCOC(=O)c1sc2nc(-c3ccncc3)nc(NCc3ccc(OC)c(Cl)c3)c2c1C` [Compound 20]: the results for the IC50 in experiment [1], in experiment [2] and in experiment [3] were more than 10000 nM, more than 10000 nM and 3.2 nM, respectively.

Take `COc1ccc(CNc2nc(-c3ccncc3)nc3sc(C(=O)N(C)C)c(C)c23)cc1Cl` [Compound 23]: the IC50 is more than 10000 nM in experiment [1], 1600 nM in experiment [2] and 1.6 nM in experiment [3].

On to `COc1ccc(CNc2nc(-c3ccncc3)nc3sc(C(=O)Nc4ccccc4)c(C)c23)cc1Cl` [Compound 24], for which the IC50 in experiment [3] worked out at 0.46 nM.

Consider `COc1ccc(CNc2nc(-c3ccncc3)nc3sc(C(=O)Nc4ccc(NC(=O)OC(C)(C)C)cc4)c(C)c23)cc1Cl` [Compound 25], for which the IC50 in experiment [3] was determined as 0.52 nM.

Turning to `COc1ccc(CNc2nc(-c3ccncc3)nc3sc(C(=O)Nc4ccc(N)cc4)c(C)c23)cc1Cl` [Compound 26], in experiment [3], the half-inhibitory concentration (IC50) came out at 0.5 nM.

As for `COc1ccc(CNc2nc(-c3ccncc3)nc3sc(C(=O)N4CCOCC4)c(C)c23)cc1Cl` [Compound 27], the values for the IC50 in experiment [1], in experiment [2] and in experiment [3] were more than 10000 nM, 3700 nM and 0.53 nM, respectively.

Turning to `COc1ccc(CNc2nc(-c3ccncc3)nc3sc(C(=O)N4CCCCC4)c(C)c23)cc1Cl` [Compound 28], the IC50 was more than 10000 nM in experiment [1], 1600 nM in experiment [2] and 0.5 nM in experiment [3].

Consider `COc1ccc(CNc2nc(-c3ccncc3)nc3sc(C(=O)N4CCN(C)CC4)c(C)c23)cc1Cl` [Compound 29], for which the 50% inhibitory concentration (IC50) in experiment [1] was more than 10000 nM; in experiment [2], 6900 nM; in experiment [3] it was 0.52 nM.

Turning to `COc1ccc(CNc2nc(-c3ccncc3)nc3sc(-c4ccccn4)c(C)c23)cc1Cl` [Compound 32], the figures for the IC50 in experiment [1], in experiment [2] and in experiment [3] were more than 10000 nM, 240 nM and 0.68 nM, respectively.

Take `COc1ccc(CNc2nc(-c3ccncc3)nc3sc(C(=O)Nc4nccs4)c(C)c23)cc1Cl` [Compound 33]: the IC50 in experiment [3] worked out at 0.095 nM.

`COc1ccc(CNc2nc(-c3ccncc3)nc3sc(C(=O)NCCO[N+](=O)[O-])c(C)c23)cc1Cl` [Compound 38]: the IC50 in experiment [3] was 0.65 nM.

For `COc1ccc(CNc2nc(-c3ccccn3)nc3sc(C(=O)Nc4ccccc4)c(C)c23)cc1Cl` [Compound 44], the half-inhibitory concentration (IC50) in experiment [1] was more than 10000 nM; in experiment [3], 6.4 nM.

As to `COc1ccc(CNc2nc(-c3ccccn3)nc3sc(C(=O)Nc4nccs4)c(C)c23)cc1Cl` [Compound 50], in experiment [3], the IC50 was 2.3 nM.

With `COc1ccc(CNc2nc(-c3ccccn3)nc3sc(C(=O)Nc4cccnc4)c(C)c23)cc1Cl` [Compound 51], the IC50 in experiment [3] worked out at 7.2 nM.

Regarding `COc1ccc(CNc2nc(C(=O)Nc3ccccc3)nc3sc(-c4cccnc4)c(C)c23)cc1Cl` [Compound 57], the IC50 in experiment [3] was 0.29 nM.

Regarding `COc1ccc(CNc2nc(C(=O)Nc3ccccc3)nc3sc(-c4ccncc4)c(C)c23)cc1Cl` [Compound 68], the IC50 is more than 10000 nM in experiment [1], 2400 nM in experiment [4], 10000 nM in experiment [2] and 0.27 nM in experiment [3].

Consider `COc1ccc(CNc2nc(C(=O)Nc3ccccc3)nc3sc(C(=O)Nc4ccccc4)c(C)c23)cc1Cl` [Compound 87], for which the IC50 in experiment [3] worked out at 0.27 nM.

`COc1ccc(CNc2nc(C(=O)Nc3ccccc3)nc3sc(-c4ccc(F)cc4)c(C)c23)cc1Cl` [Compound 90]: the IC50 in experiment [1] is more than 10000 nM; in experiment [4], more than 10000 nM; in experiment [2] it was 8400 nM; in experiment [3], 0.43 nM.

For the compound `COc1ccc(CNc2nc(C(=O)Nc3ccccc3)nc3scc(C)c23)cc1Cl` [Compound 91], the IC50 is more than 10000 nM in experiment [1], more than 10000 nM in experiment [4], 3400 nM in experiment [2] and 2.5 nM in experiment [3].

Regarding `CCOC(=O)c1nc(NCc2ccc(OC)c(Cl)c2)c2cc(-c3ccccc3)sc2n1` [Compound 93], the half-inhibitory concentration (IC50) in experiment [1] is more than 10000 nM; in experiment [4], more than 10000 nM; in experiment [2], more than 10000 nM; in experiment [3] it was 2.9 nM.

For `COc1ccc(CNc2nc(C(=O)Nc3ccccc3)nc3sc(-c4ccccc4)cc23)cc1Cl` [Compound 94], the IC50 in experiment [1] was more than 10000 nM; in experiment [4], more than 10000 nM; in experiment [2], 5600 nM; in experiment [3], 0.71 nM.

`CCCc1nn(C)c2c(=O)[nH]c(-c3cc(S(=O)(=O)N4CCN(C)CC4)ccc3OCC)nc12` [Control, Sildenafil, reference compound]: the IC50 in experiment [1] is 2000 nM; in experiment [2], more than 1000 nM.

Values taken from patent EP1329454A1, “THIENOPYRIMIDINE COMPOUNDS AND THEIR SALTS AND PROCESS FOR PREPARATION OF BOTH” (NIPPON SODA CO., LTD., priority 2000, dated 2002).
